Values quoted from earlier work as cited in patent US8729014B2, “Specific HCV NS3 protease inhibitors” (RFS Pharma, LLC, priority 2010, dated 2014).

System: HepG2 cells
Conditions: HepG2 cells incubated with 10 μM; cited from earlier work

O=c1[nH]c(=O)n([C@@H]2O[C@H](CO)[C@@H](O)[C@@H]2F)cc1I [fialuridine, 1,2′-deoxy-2′-fluoro-1-D-arabinofuranosly-5-iodo-uracil]
morphological changes in mitochondria (electron micrographs): enlarged mitochondria with morphological changes consistent with mitochondrial dysfunction
